Series [1] is described as follows: ASSAY (IV) determination of solubility. The class given is physicochemical. The gist of the method: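 Polypeptide stock in water ([…]) was mixed 1:1 with 100 mM buffers: glycylglycine at pH 3.0, 4.0, 5.0 and bistrispropane at pH 6.0, 6.5, 7.0, 7.5, 8.0. After 18 hours at room temperature, samples were centrifuged and polypeptide concentration measured by UPLC.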

Series [2] is described as follows: ASSAY (III) ThT fibrillation assay for physical stability. The class given is physicochemical. The gist of the method:
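Formulations with 1 μM ThT, pH adjusted as required, incubated at 37 °C with 960 rpm orbital shaking; fluorescence (ex 444/em 485 nm) read every 20 min. Fibrillation reported as mean ThT fluorescence ± SD of 4–8 replicates at time points; polypeptide concentration measured by reverse-phase HPLC before and after, post-centrifugation.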

Series [3] deals with T1, rat amylin receptor (rat calcitonin receptor + rat RAMP 3) (Rattus norvegicus, UniProt P32214+Q9JJ73).
T1 construct: expressed in transfected cells; host or cells: BHK tk'ts 13 (transient, FuGENE 6), membranes
T1 sequence (P32214 25-479 isoform P32214-2 limits assumed): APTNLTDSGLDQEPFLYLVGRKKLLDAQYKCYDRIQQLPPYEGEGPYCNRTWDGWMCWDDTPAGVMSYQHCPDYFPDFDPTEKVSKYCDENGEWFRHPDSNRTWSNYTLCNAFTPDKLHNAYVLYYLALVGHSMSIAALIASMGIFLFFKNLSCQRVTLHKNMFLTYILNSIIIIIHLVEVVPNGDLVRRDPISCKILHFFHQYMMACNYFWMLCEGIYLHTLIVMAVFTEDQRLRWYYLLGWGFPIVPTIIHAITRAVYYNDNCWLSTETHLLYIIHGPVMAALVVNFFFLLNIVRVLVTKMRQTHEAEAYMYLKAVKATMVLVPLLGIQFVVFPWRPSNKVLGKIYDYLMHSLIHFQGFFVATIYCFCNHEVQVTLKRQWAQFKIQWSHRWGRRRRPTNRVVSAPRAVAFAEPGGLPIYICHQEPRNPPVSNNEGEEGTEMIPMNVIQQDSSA
T1 sequence (Q9JJ73 23-147 partner): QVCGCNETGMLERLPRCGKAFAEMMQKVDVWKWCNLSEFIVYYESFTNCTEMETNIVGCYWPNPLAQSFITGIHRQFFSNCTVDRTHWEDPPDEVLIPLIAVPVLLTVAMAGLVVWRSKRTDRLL
The series can be described thus: ASSAY (VI) binding to the rat amylin receptor. The conditions noted are these: for IC50: binding to rat amylin receptor, read-out: rAmylin-R bind IC50. Put shortly: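 This assay measured binding to the rat amylin receptor. BHK tk′ts 13 cells were transiently transfected with the rat calcitonin receptor using FuGENE® 6 (Roche), following the manufacturer's recommendations. About 48 hours after transfection, the cells were harvested and membranes were prepared from them for the binding determination.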

Where [4] appears, read: bistrispropane buffer, pH 6.5, read-out: Solubility pH 6.5 Concentration.
Setting [5] is: bistrispropane buffer, pH 7.5, read-out: Solubility pH 7.5 Concentration.
Where [6] appears, read: bistrispropane buffer, pH 6.0, read-out: Solubility pH 6.0 Concentration.
The mark [7] stands for this setting: bistrispropane buffer, pH 7.0, read-out: Solubility pH 7.0 Concentration.
Setting [8] is: bistrispropane buffer, pH 8.0, read-out: Solubility pH 8.0 Concentration.
The mark [9] stands for this setting: glycylglycine buffer, pH 3.0, read-out: Solubility pH 3.0 Concentration.
Where [10] appears, read: glycylglycine buffer, pH 4.0, read-out: Solubility pH 4.0 Concentration.
[11] abbreviates: glycylglycine buffer, pH 5.0, read-out: Solubility pH 5.0 Concentration.
Where [12] appears, read: Table 7, rat binding selectivity, rCTR IC50 / rAmylin-R IC50.
The mark [13] stands for this setting: Table 7a (preferred compounds), rat binding selectivity, rCTR IC50 / rAmylin-R IC50.
[14] abbreviates: ratio of rCTR bind IC50 to rAmylin-R bind IC50.

The text below walks through data of patent US9023789B2, “Amylin analogs and pharmaceutical compositions thereof” (Novo Nordisk A/S, priority 2012, dated 2015).

Structures are written as SMILES. In brackets after ≈: the same amount, converted by molar mass. Read-outs that look alike come from different tables or passages of the source. Numbered stars: 1 amine (or outer) side, 2 acyl side, 3 side chain; on linkers, the order of the positions; unused ones are H or OH. Bridge positions count the residues as written; N and C are the ends. Side chains are listed from the residue outwards. Peptide text beside a SMILES is read from it. * marks the point of attachment. C20 diacid = O=C(O)CCCCCCCCCCCCCCCCCCC(=O)*; γGlu = O=C(O)[C@H](CCC(=O)[*:2])N[*:1]; AEEA = NCCOCCOCC(=O)O Where only a bound is given, the exact number is not on record here.

On to `CC[C@H](C)[C@H](NC(=O)[C@H](C)NC(=O)CNC(=O)[C@H](Cc1ccccc1)NC(=O)[C@H](CC(N)=O)NC(=O)[C@@H]1CCCN1C(=O)[C@H](CO)NC(=O)[C@H](CO)NC(=O)[C@H](Cc1c[nH]cn1)NC(=O)[C@H](CCCNC(=N)N)NC(=O)[C@H](CC(C)C)NC(=O)[C@H](Cc1ccccc1)NC(=O)[C@H](C)NC(=O)[C@H](C)NC(=O)[C@H](CC(C)C)NC(=O)[C@H](CCCNC(=N)N)NC(=O)[C@H](CCC(N)=O)NC(=O)[C@@H](NC(=O)[C@H](C)NC(=O)[C@@H]1CSSC[C@H](NC(=O)[C@@H](N)CCCCNC(=O)CC[C@H](NC(=O)CCCCCCCCCCCCCCCCCCC(=O)O)C(=O)O)C(=O)N[C@@H](CC(N)=O)C(=O)N[C@@H]([C@@H](C)O)C(=O)N[C@@H](C)C(=O)N[C@@H]([C@@H](C)O)C(=O)N1)[C@@H](C)O)C(=O)N1CCC[C@H]1C(=O)N[C@@H](CO)C(=O)N[C@@H](CO)C(=O)N[C@H](C(=O)N[C@@H](CC(N)=O)C(=O)N[C@H](C(=O)NCC(=O)N1CCC[C@H]1C(=O)N[C@@H](CC(N)=O)C(=O)N[C@H](C(=O)N[C@@H](Cc1ccc(O)cc1)C(N)=O)[C@@H](C)O)C(C)C)[C@@H](C)O` [Example 94] (H-K([γGlu-C20 diacid])CNTATCATQRLAAFLRHSSPNFGAIPSSTNVGPNTY-NH2; disulfide 2-7 (inferred)), for which the solubility at 18 h in series [1] (setting [4]), in series [1] (setting [5]), in series [1] (setting [6]), in series [1] (setting [7]), in series [1] (setting [8]) and in series [1] (setting [9]) was at least 200 µM throughout. In addition, the solubility at 18 h in series [1] (setting [10]) and in series [1] (setting [11]) was at least 200 µM throughout. In addition, in series [2], the “ThT pH 4.0 lag time (h)” value came out at 10 h. The IC50 (in general, the concentration that gives 50% inhibition) in series [3] (Table 7) was 0.397 nM. The “Ratio rCT/rAmylin binding” value in series [3] (setting [12]), in series [3] (setting [13]) and in series [3] (setting [14]) was 280.1 in each case.
Regarding `CC[C@H](C)[C@H](NC(=O)[C@H](C)NC(=O)CNC(=O)[C@H](Cc1ccccc1)NC(=O)[C@H](CC(N)=O)NC(=O)[C@@H]1CCCN1C(=O)[C@H](CO)NC(=O)[C@H](CO)NC(=O)[C@H](Cc1c[nH]cn1)NC(=O)[C@H](CCCNC(=N)N)NC(=O)[C@H](CC(C)C)NC(=O)[C@H](Cc1ccccc1)NC(=O)[C@H](CC(N)=O)NC(=O)[C@H](C)NC(=O)[C@H](CC(C)C)NC(=O)[C@H](CCCNC(=N)N)NC(=O)[C@H](CCC(N)=O)NC(=O)[C@@H](NC(=O)[C@H](C)NC(=O)[C@@H]1CSSC[C@H](NC(=O)[C@@H](N)CCCCNC(=O)COCCOCCNC(=O)COCCOCCNC(=O)CC[C@H](NC(=O)CCCCCCCCCCCCCCCCCCC(=O)O)C(=O)O)C(=O)N[C@@H](CC(N)=O)C(=O)N[C@@H]([C@@H](C)O)C(=O)N[C@@H](C)C(=O)N[C@@H]([C@@H](C)O)C(=O)N1)[C@@H](C)O)C(=O)N1CCC[C@H]1C(=O)N[C@@H](CO)C(=O)N[C@@H](CO)C(=O)N[C@H](C(=O)N[C@@H](CC(N)=O)C(=O)N[C@H](C(=O)NCC(=O)N[C@@H](CCCNC(=N)N)C(=O)N[C@@H](CC(N)=O)C(=O)N[C@H](C(=O)N[C@@H](Cc1ccc(O)cc1)C(N)=O)[C@@H](C)O)C(C)C)[C@@H](C)O` [Example 95] (H-K([AEEA-AEEA-γGlu-C20 diacid])CNTATCATQRLANFLRHSSPNFGAIPSSTNVGRNTY-NH2; disulfide 2-7 (inferred); N-terminus assumed), the solubility at 18 h in series [1] (setting [4]), in series [1] (setting [5]), in series [1] (setting [6]), in series [1] (setting [7]), in series [1] (setting [8]) and in series [1] (setting [9]) was at least 200 µM each time. The solubility at 18 h in series [1] (setting [10]) and in series [1] (setting [11]) was at least 200 µM each time. In addition, the “ThT pH 4.0 lag time (h)” value in series [2] is 37 h. In series [3] (Table 7), the IC50 worked out at 5.45 nM. Besides, the “Ratio rCT/rAmylin binding” value in series [3] (setting [12]), in series [3] (setting [13]) and in series [3] (setting [14]) was 71.3 each time.
`CC[C@H](C)[C@H](NC(=O)[C@H](C)NC(=O)CNC(=O)[C@H](Cc1ccccc1)NC(=O)[C@H](CC(N)=O)NC(=O)[C@@H]1CCCN1C(=O)[C@H](CO)NC(=O)[C@H](CO)NC(=O)[C@H](Cc1c[nH]cn1)NC(=O)[C@H](CCCNC(=N)N)NC(=O)[C@H](CC(C)C)NC(=O)[C@H](Cc1ccccc1)NC(=O)[C@H](C)NC(=O)[C@H](C)NC(=O)[C@H](CC(C)C)NC(=O)[C@H](CCCNC(=N)N)NC(=O)[C@H](CCC(N)=O)NC(=O)[C@@H](NC(=O)[C@H](C)NC(=O)[C@@H]1CSSC[C@H](NC(=O)[C@H](CCCNC(=N)N)NC(=O)CNC(=O)CC[C@H](NC(=O)CCCCCCCCCCCCCCCCCCC(=O)O)C(=O)O)C(=O)N[C@@H](CC(N)=O)C(=O)N[C@@H]([C@@H](C)O)C(=O)N[C@@H](C)C(=O)N[C@@H]([C@@H](C)O)C(=O)N1)[C@@H](C)O)C(=O)N1CCC[C@H]1C(=O)N[C@@H](CO)C(=O)N[C@@H](CO)C(=O)N[C@H](C(=O)N[C@@H](CC(N)=O)C(=O)N[C@H](C(=O)NCC(=O)N[C@@H](Cc1c[nH]cn1)C(=O)N[C@@H](CC(N)=O)C(=O)N[C@H](C(=O)N[C@@H](Cc1ccc(O)cc1)C(N)=O)[C@@H](C)O)C(C)C)[C@@H](C)O` [Example 101] ({C20 diacid-γGlu}-GRCNTATCATQRLAAFLRHSSPNFGAIPSSTNVGHNTY-NH2; disulfide 3-8): the solubility at 18 h in series [1] (setting [4]) was at least 200 µM; in series [1] (setting [5]) it was 69 µM (≈ 309 µg/mL); in series [1] (setting [6]) it was at least 200 µM; in series [1] (setting [7]), 182 µM (≈ 814 µg/mL); in series [1] (setting [8]), 83 µM (≈ 371 µg/mL); in series [1] (setting [9]), at least 200 µM. In addition, the solubility at 18 h in series [1] (setting [10]) and in series [1] (setting [11]) was at least 200 µM throughout. In series [2], the “ThT pH 4.0 lag time (h)” value is given as 45 h. Moreover, in series [3] (Table 7), the IC50 turned out to be 8.07 nM. Further, the “Ratio rCT/rAmylin binding” value in series [3] (setting [12]), in series [3] (setting [13]) and in series [3] (setting [14]) was 60.9 throughout.
As for `CC[C@H](C)[C@H](NC(=O)[C@H](C)NC(=O)CNC(=O)[C@H](Cc1ccccc1)NC(=O)[C@H](CC(N)=O)NC(=O)[C@@H]1CCCN1C(=O)[C@H](CO)NC(=O)[C@H](CO)NC(=O)[C@H](Cc1c[nH]cn1)NC(=O)[C@H](CCCNC(=N)N)NC(=O)[C@H](CC(C)C)NC(=O)[C@H](Cc1ccccc1)NC(=O)[C@H](Cc1c[nH]cn1)NC(=O)[C@H](C)NC(=O)[C@H](CC(C)C)NC(=O)[C@H](CCCNC(=N)N)NC(=O)[C@H](CCC(N)=O)NC(=O)[C@@H](NC(=O)[C@H](C)NC(=O)[C@@H]1CSSC[C@H](NC(=O)[C@H](CCCNC(=N)N)NC(=O)CNC(=O)CC[C@H](NC(=O)CCCCCCCCCCCCCCCCCCC(=O)O)C(=O)O)C(=O)N[C@@H](CC(N)=O)C(=O)N[C@@H]([C@@H](C)O)C(=O)N[C@@H](C)C(=O)N[C@@H]([C@@H](C)O)C(=O)N1)[C@@H](C)O)C(=O)N1CCC[C@H]1C(=O)N[C@@H](CO)C(=O)N[C@@H](CO)C(=O)N[C@H](C(=O)N[C@@H](CC(N)=O)C(=O)N[C@H](C(=O)NCC(=O)N1CCC[C@H]1C(=O)N[C@@H](CC(N)=O)C(=O)N[C@H](C(=O)N[C@@H](Cc1ccc(O)cc1)C(N)=O)[C@@H](C)O)C(C)C)[C@@H](C)O` [Example 102] ({C20 diacid-γGlu}-GRCNTATCATQRLAHFLRHSSPNFGAIPSSTNVGPNTY-NH2; disulfide 3-8 (inferred)), the solubility at 18 h is at least 200 µM in series [1] (setting [4]); 88 µM (≈ 396 µg/mL) in series [1] (setting [5]); at least 200 µM in series [1] (setting [6]); 154 µM (≈ 693 µg/mL) in series [1] (setting [7]); 113 µM (≈ 508 µg/mL) in series [1] (setting [8]); at least 200 µM in series [1] (setting [9]). Also, the solubility at 18 h was 197 µM (≈ 886 µg/mL) in series [1] (setting [10]) and 195 µM (≈ 877 µg/mL) in series [1] (setting [11]). The “ThT pH 4.0 lag time (h)” value in series [2] is 26 h. In addition, the IC50 in series [3] (Table 7) came out at 0.674 nM. For the same compound, the “Ratio rCT/rAmylin binding” value in series [3] (setting [12]), in series [3] (setting [13]) and in series [3] (setting [14]) was 97.7 each time.
